Read-outs that look alike come from different tables or passages of the source.
Key:
Type in all cases: cell-based
[1] = tested on: Human Adenovirus Type 5; assay: In-vitro anti-viral (virucidal) assay, cytopathic effect study with human AE549 cells; conditions: 70% ethanol
Method: To determine whether contact with aqueous formulation of this invention containing 0.6% PVP-I inactivates (“kills”) virus, the aqueous formulation was mixed directly with virus for 30±5 minutes, then neutralized and the surviving virus was quantified.

[2] = tested on: Influenza Virus A H1N1, California July 2009; assay: In vitro virucidal assay, endpoint dilution CCID50 on MDCK cells; conditions: 95% ethanol control, 37° C.
Method: Formulation B containing 0.6% PVP-I (for nasal spray) was tested for virucidal assay against influenza virus (Influenza Virus A H1N1, California July 2009). Formulation B was diluted with artificial nasal fluid as follows: neat, 1/1.8, 1/3.2 and 1/10. Other controls were 95% ethanol and MEM solution. Virus solution was added to test dilution at 1/10 and incubated for 30 seconds and 2 minutes at 37° C. And thus, the final concentration of solution tested were 90%, 50%, 28% and 9%. Following the incubation period, samples were neutralized by a 1/10 dilution in test media containing 10% FBS. The surviving virus in each tube was determined using a standard endpoint dilution CCID50 assay as follows. Samples were diluted 1/10 in series and each dilution added to 4 replicate columns of 96-well plates seeded with 80-100% confluent MDCK cells. Plates were incubated for 6 days at 37° C. with 5% CO2 then scored for the presence or absence of cytopathic effect (CPE). Virus titer (CCID50) was calculated using the Reed-Muench method (1948). The log reduction value (LRV) of the compound compared to the virus control was calculated. The entire procedure was repeated in triplicate. Toxicity controls were performed to show whether test compound toxicity would confound results by killing the cells in the absence of virus.

[3] = tested on: SARS-CoV-2; conditions: 45% ethanol control, 37° C.; for Viral Titer: mean of 3 ± SD

Compound: CCO [Ethanol]
- virucidal effect of ethanol control [1]: fully effective
- LRV (log reduction value) ([2]; contact time 0.5 min): 1.5
- Viral Titer ([2]; contact time 0.5 min): 4.5 Log10 CCID50 of virus per mL
- LRV (log reduction value) ([2]; contact time 2 min): 4.4
- Viral Titer ([2]; contact time 2 min): 2.3 Log10 CCID50 of virus per mL
- LRV (log reduction value) ([3]; contact time 0.5 min): 3.5
- Viral Titer ([3]; contact time 0.5 min): <1.7 ± 0.0 Log10 CCID50 of virus per mL
- LRV (log reduction value) ([3]; contact time 2 min): 1.9
- Viral Titer ([3]; contact time 2 min): <1.7 ± 0.0 Log10 CCID50 of virus per mL
- LRV (log reduction value) ([3]; contact time 10 min): 3.3
- Viral Titer ([3]; contact time 10 min): <0.67 ± 0.0 Log10 CCID50 of virus per mL
